Data set [1] can be described thus: Plasma concentration of SRR G-1 in rats after oral dosing (LC-MS/MS). It counts as in vivo. The conditions noted are these: rat, individual animals (R1-R9); for Plasma Conc.: PO 10 mg/kg, listed as SRR G-1 Free Base. From the text:
The results are shown in Tables 22-24 for each respectively.

Another data set addresses T1, CYP2C8 (Homo sapiens, UniProt P10632).
T1 sequence (P10632 1-490): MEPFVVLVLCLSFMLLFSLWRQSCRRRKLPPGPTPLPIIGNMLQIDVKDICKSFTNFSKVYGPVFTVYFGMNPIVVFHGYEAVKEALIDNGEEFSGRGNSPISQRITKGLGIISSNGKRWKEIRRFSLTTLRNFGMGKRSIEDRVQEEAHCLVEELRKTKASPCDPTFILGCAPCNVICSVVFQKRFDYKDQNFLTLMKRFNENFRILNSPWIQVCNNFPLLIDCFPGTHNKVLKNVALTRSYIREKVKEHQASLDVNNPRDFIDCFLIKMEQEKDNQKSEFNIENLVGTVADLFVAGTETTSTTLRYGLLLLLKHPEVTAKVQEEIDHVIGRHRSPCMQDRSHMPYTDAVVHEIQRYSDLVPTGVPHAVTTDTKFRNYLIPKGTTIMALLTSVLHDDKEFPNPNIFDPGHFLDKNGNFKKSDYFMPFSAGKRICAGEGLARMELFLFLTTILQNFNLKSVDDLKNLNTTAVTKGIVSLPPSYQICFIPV
Briefly: in vitro. It counts as in vitro ADME. Here is the method: (§1) Cytochrome P450 Inhibition (HPLC-UV/VIS and HPLC-MS/MS detection)
(§2) Peak areas corresponding to the metabolite of each substrate were recorded. The percent of control activity was then calculated by comparing the peak area obtained in the presence of the test compound to that obtained in the absence of the test compound. Subsequently, the percent inhibition was calculated by subtracting the percent control activity from 100 for each compound. IC50 values (concentration causing a half-maximal inhibition of control values) were determined by non-linear regression analysis of the concentration-response curve using Hill equation curve fitting.

The next data set deals with CYP2D6 (Homo sapiens, UniProt P10635). In words: in vitro. The class given is in vitro ADME. As to the method:
as §1, §2

Another data set deals with CYP2C9 (Homo sapiens, UniProt P11712). In words: in vitro. It counts as in vitro ADME. As to the method:
as §1, §2

As a reminder, the inhibition is the percentage by which the read-out fell short of the control. A lower inhibition goes with a weak effect.

The structures appear in SMILES notation. Several values for one entry are separate records, joined by “and”; a condition that tells them apart may be missing. Equal values may be shown once.

Sequence of CYP2C9 (P11712 whole entry, species assumed): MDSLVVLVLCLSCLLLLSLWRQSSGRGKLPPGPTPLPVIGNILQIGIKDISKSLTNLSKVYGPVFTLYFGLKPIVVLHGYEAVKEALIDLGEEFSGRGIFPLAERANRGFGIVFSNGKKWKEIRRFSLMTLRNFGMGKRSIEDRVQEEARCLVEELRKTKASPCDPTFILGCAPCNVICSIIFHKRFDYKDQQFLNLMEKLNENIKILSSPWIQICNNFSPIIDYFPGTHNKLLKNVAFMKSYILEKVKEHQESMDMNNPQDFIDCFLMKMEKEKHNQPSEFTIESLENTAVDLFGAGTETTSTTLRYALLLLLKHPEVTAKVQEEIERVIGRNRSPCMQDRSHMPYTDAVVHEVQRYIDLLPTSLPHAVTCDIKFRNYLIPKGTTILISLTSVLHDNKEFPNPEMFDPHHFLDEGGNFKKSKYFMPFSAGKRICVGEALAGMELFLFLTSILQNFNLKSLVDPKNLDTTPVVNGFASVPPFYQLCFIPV
Sequence of CYP2D6 (P10635 whole entry, species assumed): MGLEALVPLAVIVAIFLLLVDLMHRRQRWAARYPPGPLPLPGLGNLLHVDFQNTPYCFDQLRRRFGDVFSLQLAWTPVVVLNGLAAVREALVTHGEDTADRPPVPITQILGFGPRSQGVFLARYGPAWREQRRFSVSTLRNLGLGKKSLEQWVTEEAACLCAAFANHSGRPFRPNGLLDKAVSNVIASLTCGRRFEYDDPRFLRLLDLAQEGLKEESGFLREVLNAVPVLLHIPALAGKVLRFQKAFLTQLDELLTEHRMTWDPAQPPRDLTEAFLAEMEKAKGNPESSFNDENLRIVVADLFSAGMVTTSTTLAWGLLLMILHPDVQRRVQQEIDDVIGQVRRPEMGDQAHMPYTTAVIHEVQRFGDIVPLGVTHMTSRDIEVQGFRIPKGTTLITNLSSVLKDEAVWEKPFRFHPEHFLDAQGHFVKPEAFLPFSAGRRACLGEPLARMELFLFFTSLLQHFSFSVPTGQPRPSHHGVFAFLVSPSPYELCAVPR

With `CC(=O)c1ccc2c(c1)[C@@H]1C=CC[C@@H]1[C@H](c1cc3c(cc1Br)OCO3)N2` (single isomer, unassigned) [SRR G-1], the concentration at 1 h in data set [1] (male, plasma, po, 10 mg/kg, time 1.00 h, read-out: Plasma Conc.) is 3.96 ng/mL. Further, the concentration at 8 h in data set [1] (male, plasma, po, 10 mg/kg, time 8.00 h, read-out: Plasma Conc.) was found to be 1.72 ng/mL. For the same molecule, the concentration at 24 h in data set [1] (male, plasma, po, 10 mg/kg, time 24.0 h, LLOQ 0.100 ng/mL, read-out: Plasma Conc.) was determined as 0.127 ng/mL. Further, the “Plasma Conc.” value is 1.91 ng/mL and 2.60 ng/mL and 1.23 ng/mL in data set [1] (time 0.500 h); 6.03 ng/mL and 3.15 ng/mL in data set [1] (time 1.00 h); 2.96 ng/mL and 7.56 ng/mL and 2.71 ng/mL in data set [1] (time 2.00 h); 2.18 ng/mL and 4.67 ng/mL and 1.39 ng/mL in data set [1] (time 4.00 h); 1.58 ng/mL and 1.47 ng/mL in data set [1] (time 8.00 h); 0.169 ng/mL and BQL in data set [1] (time 24.0 h, LLOQ 0.100 ng/mL). Besides, the inhibition at 10 µM is 66.7% against CYP2C8 and 74.3% against CYP2D6.
With `CC(=O)c1ccc2c(c1)[C@H]1C=CC[C@H]1[C@@H](c1cc3c(cc1Br)OCO3)N2` [RSS G-1, 1-((3aR,4S,9bS)-4-(6-bromobenzo[d][1,3]dioxol-5-yl)-3a,4,5,9b-tetrahydro-3H-cyclopenta[c]quinolin-8-yl)ethan-1-one], at CYP2C9, the inhibition at 10 µM stood at 50.4%.

(Values after patent US10934277B2, “Enantiomerically purified GPER agonist for use in treating disease states and conditions” (Linnaeus Therapeutics, Inc., priority 2018, dated 2021).)
